In ChEMBL document CHEMBL1156415, “Selective inhibition of porcine endogenous retrovirus replication in human cells by acyclic nucleoside phosphonates” (Antimicrob Agents Chemother, 2007) one finds EC50, CC50 and IC50 data, which are given here for twelve compounds.

The test system of series [1] is Porcine endogenous retrovirus. Kind of series: Antiviral activity against PERV infected in human 293T cells assessed as inhibition of proximal DNA synthesis after 24 hrs by RT-PCR. The series is classed as functional, organism-based. Conditions: Porcine type-C oncovirus, HEK-293T.
Series [2] can be described thus: Cytotoxicity against human 293T cells assessed as inhibition of cell proliferation by tetrazolium dye method. In kind it is cell-based, HEK-293T.
A short description of series [3]: Inhibition of PERV reverse transcriptase from pig PK15 cells. The series is classed as cell-based, Porcine endogenous retrovirus.
Series [4] is described as follows: Inhibition of PERV reverse transcriptase from Kagoshima pig KK5 cells. Further details: species or system Porcine endogenous retrovirus.
Series [5] can be described thus: Inhibition of PERV reverse transcriptase from Kagoshima pig DRK4 cells. Further details: species or system Porcine endogenous retrovirus.
Series [6] has as its target Human immunodeficiency virus type 1 reverse transcriptase (Human immunodeficiency virus 1, UniProt Q72547). Kind of series: Inhibition of HIV1 recombinant reverse transcriptase.

Turning to `Cc1ccnc2c1NC(=O)c1cccnc1N2C1CC1` [NEVIRAPINE], the EC50 in series [1] is above 100 µM. The CC50 in series [2] is above 100 µM.

`C[C@H](Cn1cnc2c(N)ncnc21)OCP(=O)(O)O` [TENOFOVIR ANHYDROUS]: the EC50 in series [1] was 2.8 µM. The half-maximal cytotoxic concentration (CC50) in series [2] is above 100 µM.

On to `Nc1cc(OCCOCP(=O)(O)O)nc(N)n1`, for which, in series [1], the EC50 worked out at 0.18 µM. For the same compound, in series [2], the CC50 is above 100 µM.

On to `C[C@H](Cn1cnc2c(N)nc(N)nc21)OCP(=O)(O)O`, for which the 50% effective concentration (EC50) in series [1] was found to be 0.28 µM. In series [2], the half-maximal cytotoxic concentration (CC50) was above 100 µM.

As for `Cc1cn([C@H]2C[C@H](O)[C@](CO)(N=[N+]=[N-])O2)c(=O)[nH]c1=O`, the EC50 in series [1] is above 100 µM. Also, in series [2], the half-maximal cytotoxic concentration (CC50) is above 100 µM.

For `Nc1ncnc2c1ncn2CCOCP(=O)(O)O` [ADEFOVIR], the concentration for a half-maximal effect (EC50) in series [1] worked out at 3.4 µM. Also, the CC50 in series [2] is above 100 µM.

On to `C#C[C@@]1(CO)C=C[C@H](n2cc(C)c(=O)[nH]c2=O)O1` [CENSAVUDINE], for which the 50% effective concentration (EC50) in series [1] is above 100 µM. Further, the CC50 in series [2] is above 100 µM.

Take `Nc1ccn([C@@H]2CS[C@H](CO)O2)c(=O)n1` [LAMIVUDINE]: in series [1], the concentration for a half-maximal effect (EC50) was above 100 µM. Besides, the cytotoxic concentration (CC50) in series [2] was above 100 µM.

As for `Cc1cn([C@H]2C=C[C@@H](CO)O2)c(=O)[nH]c1=O` [STAVUDINE], the concentration for a half-maximal effect (EC50) in series [1] came to 7.8 µM. Besides, in series [2], the CC50 was above 100 µM.

For the compound `Cc1cn([C@H]2C[C@H](N=[N+]=[N-])[C@@H](COP(=O)(O)OP(=O)(O)OP(=O)(O)O)O2)c(=O)[nH]c1=O` [ZIDOVUDINE TRIPHOSPHATE], the half-maximal inhibitory concentration (IC50) in series [3] was 59 nM; in series [4] it was 19 nM; in series [5], 20 nM; in series [6], 54 nM.

With `Cc1cn([C@H]2C=C[C@@H](COP(=O)(O)OP(=O)(O)OP(=O)(O)O)O2)c(=O)[nH]c1=O` [STAVUDINE TRIPHOSPHATE], the IC50 in series [3] worked out at 450 nM; in series [4], 150 nM; in series [5], 170 nM; in series [6], 36 nM.

As to `Cc1cn([C@H]2C[C@H](N=[N+]=[N-])[C@@H](CO)O2)c(=O)[nH]c1=O` [ZIDOVUDINE], the EC50 in series [1] is 0.023 µM. Further, in series [2], the CC50 is above 10 µM.
